How the values were obtained:
CYP3A4 [1] = experiment: CYP3A4 induction study
rat fetuses = experiment: Developmental toxicity in pregnant rats; assay type: in vivo
CYP3A4 [2] = target: CYP3A4 (Homo sapiens, UniProt P08684); experiment: In vitro cytochrome P450 inhibition; assay type: biochemical; conditions: 2 to 200 ng/mL
[3] = tested on: hepatic encephalopathy (HE), commonly-occurring infections; experiment: Infection rates in cirrhotic patients with HE on long-term rifaximin 550 mg BID (RCT and open-label maintenance); assay type: in vivo; conditions: for Any infection: rate = number of subjects/PEY; for C. difficile infection / Cellulitis / Peritonitis / Pneumonia / Urinary tract/kidney infection: human, in vivo
Description: Cirrhosis patients can have an increased risk of infections and subsequent hospitalizations, leading to increased mortality. […] A description of the OLM and RCT can be found in WO 2011/005388, “METHODS OF TREATING HEPATIC ENCEPHALOPATHY,” which is incorporated herein by reference in its entirety. In the analysis below, the effect of long term RFX treatment on infection rates and antibiotic use was examined.
Patients with cirrhosis and ≥2 overt HE episodes within 12 months were enrolled in the RCT (RFX=140; placebo [PBO]=159); 170 new patients, in addition to 70 RFX and 82 PBO patients who rolled over from the RCT were enrolled in OLM. The “All RFX group” (n=392) consisted of RFX-treated patients in both studies. Infection rates per person exposure years (PEY) were compared across RCT and All RFX groups, and antibiotic use over time was examined.
In the 6 month RCT, RFX exposure was 50 PEY vs 46 PEY in the PBO group. Long term RFX exposure was for median=427 (2-1427) days, or 510 PEY. […] Overall, use of antibiotics (oral and intravenous) remained the same or declined with time.

P-glycoprotein = target: T1, P-glycoprotein (Homo sapiens, UniProt P08183); experiment: Bidirectional permeability and efflux ratio of rifaximin in Caco-2 cells with P-glycoprotein inhibitors; assay type: in vitro ADME; conditions: for Decrease of rifaximin ER in presence of GF120918 (0.5 μM) and verapamil (60 μM): rifaximin 5 μM
T1 construct: Caco-2 cells, a human epithelial colorectal adenocarcinoma cell line; endogenous in cells; host or cells: Caco-2
T1 sequence (P08183 whole entry): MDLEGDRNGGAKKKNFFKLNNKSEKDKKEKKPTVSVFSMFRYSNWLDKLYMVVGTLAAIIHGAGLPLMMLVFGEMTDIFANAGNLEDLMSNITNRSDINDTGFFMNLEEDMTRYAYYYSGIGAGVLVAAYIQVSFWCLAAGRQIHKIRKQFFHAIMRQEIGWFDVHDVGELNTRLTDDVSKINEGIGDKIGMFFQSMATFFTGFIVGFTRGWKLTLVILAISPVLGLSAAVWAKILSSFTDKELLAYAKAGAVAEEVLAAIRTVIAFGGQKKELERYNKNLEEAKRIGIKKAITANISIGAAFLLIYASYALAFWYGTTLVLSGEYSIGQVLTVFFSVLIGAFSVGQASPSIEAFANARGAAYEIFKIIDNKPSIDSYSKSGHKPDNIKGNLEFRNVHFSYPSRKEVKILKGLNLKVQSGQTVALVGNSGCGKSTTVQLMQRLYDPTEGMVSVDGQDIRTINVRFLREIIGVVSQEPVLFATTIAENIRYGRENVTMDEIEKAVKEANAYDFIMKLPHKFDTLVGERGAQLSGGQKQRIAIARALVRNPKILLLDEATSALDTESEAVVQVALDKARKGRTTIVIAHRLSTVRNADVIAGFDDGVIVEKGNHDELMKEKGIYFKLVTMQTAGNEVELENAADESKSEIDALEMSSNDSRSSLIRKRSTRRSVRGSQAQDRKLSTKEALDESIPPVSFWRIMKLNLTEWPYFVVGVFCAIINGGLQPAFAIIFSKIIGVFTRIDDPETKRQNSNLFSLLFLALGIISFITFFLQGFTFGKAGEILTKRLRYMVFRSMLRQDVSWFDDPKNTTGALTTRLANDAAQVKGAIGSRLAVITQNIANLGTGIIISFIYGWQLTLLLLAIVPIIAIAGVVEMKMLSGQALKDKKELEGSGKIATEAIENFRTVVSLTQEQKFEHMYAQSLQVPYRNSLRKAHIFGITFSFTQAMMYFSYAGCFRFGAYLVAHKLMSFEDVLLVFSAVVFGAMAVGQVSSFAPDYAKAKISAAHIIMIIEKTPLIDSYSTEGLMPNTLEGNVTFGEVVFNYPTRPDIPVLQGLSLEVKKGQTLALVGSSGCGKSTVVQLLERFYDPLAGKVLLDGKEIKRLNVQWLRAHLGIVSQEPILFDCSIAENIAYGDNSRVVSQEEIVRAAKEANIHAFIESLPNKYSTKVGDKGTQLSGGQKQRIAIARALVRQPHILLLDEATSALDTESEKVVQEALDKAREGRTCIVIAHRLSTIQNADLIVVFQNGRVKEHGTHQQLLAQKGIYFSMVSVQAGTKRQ
Description: The ER is the ratio of efflux permeability (basolateral to apical, B-A) to absorptive permeability (apical to basolateral, A-B), and values >1 are indicative of greater efflux than absorption.

IBS-D = experiment: TARGET 3: repeat treatment with rifaximin 550 mg TID in IBS-D (open-label, double-blind first and second repeat treatment); assay type: in vivo, human
Description: This study consists of several treatment phases, and is initiated with a placebo run-in treatment during the Screening/Treatment 1 Phase. The placebo run-in is included in the design to disqualify subjects from enrollment if they no longer meet IBS symptom related entry criteria at the end of the Screening/Treatment 1 Phase (e.g., spontaneous improvement). […] Subjects who achieve treatment success in both IBS-related abdominal pain and stool consistency during at least two of the four week follow-up period are classified as responders and enter a treatment free Maintenance Phase 1. Non-responders are withdrawn from the study to provide an enriched population of subjects who respond to treatment with rifaximin. The treatment free Maintenance Phase 1 is variable in time (up to 18 weeks in total) and depends upon recurrence (e.g., absence of treatment success in both IBS related abdominal pain or stool consistency).
The subjects remain blinded to placebo received during Treatment 1. Subjects with recurrence enter the DBR Treatment 3 Phase.
Subjects are considered to have met recurrence criteria or have “relapsed” when they experience the recurrence of abdominal pain OR stool consistency for at least 3 weeks during a 4-week follow-up period. […] Therefore a recurrence of both symptoms is not required to define a “relapse”.
The study was a multi-center, randomized, double-blind, placebo-controlled trial in adult subjects with non-C IBS. The study duration was up to 51 weeks, with approximately 600 patients.
The Treatment 1 or Screening phase is the 7-13 days prior to study Day 1.
The proportion of subjects who were responders to repeat treatment in both IBS-related abdominal pain and stool consistency were evaluated during the 4 week treatment-free follow-up (Primary Evaluation Period, PEP) in the DBR (Double Blind Repeat) of the Treatment 3 Phase.
In this analysis, when a weekly response was absent for either the abdominal pain or stool consistency component for at least 3 weeks during a rolling consecutive 4-week assessment period; the subject is considered to have recurrence.
Further, the proportion of subjects who were responders to repeat treatment in both IBS-related abdominal pain and stool consistency during the PEP in the DBR Treatment 3 Phase and that had no recurrence through the end of Maintenance Phase 2 were assessed.
Further, the proportion of subjects were assessed who were responders to repeat treatment for IBS-related bloating during the PEP in the DBR Treatment 3 Phase.
The intent-to-treat (ITT) population included subjects who were randomized and received at least one dose of the study drug in the Treatment 3/DBR Treatment Phase. These subjects served as the primary analysis population. An efficacy analysis was conducted on the ITT population.
Double-Blind Phase of the Study (Response type—durable and maintained): Proportion that responded to the composite FDA Endpoint of relief in both IBS-related Abdominal Pain AND Stool Consistency during the PEP in the first repeat double-blind, placebo controlled treatment phase AND continued to respond without recurrence through the end of Week 6 following the second repeat double-blind, placebo controlled treatment.
Double-Blind Repeat Treatment and follow-up (Response type—durable): Proportion that responded to the composite FDA Endpoint of relief in both IBS-related Abdominal Pain AND Stool Consistency during the PEP in the first repeat double-blind, placebo controlled treatment phase AND continued to respond without recurrence through the end of Week 12, independent of any additional treatment.
At the end of Week 6, patients were assessed for response to treatment. […]

rabbit fetuses = experiment: Developmental toxicity in pregnant rabbits; assay type: in vivo
[4] = TARGET 3, month following repeat treatment, Worst-Case Analysis, 550 mg TID, N = 328

Sequence of CYP3A4 (Homo sapiens, UniProt P08684) (P08684 whole entry): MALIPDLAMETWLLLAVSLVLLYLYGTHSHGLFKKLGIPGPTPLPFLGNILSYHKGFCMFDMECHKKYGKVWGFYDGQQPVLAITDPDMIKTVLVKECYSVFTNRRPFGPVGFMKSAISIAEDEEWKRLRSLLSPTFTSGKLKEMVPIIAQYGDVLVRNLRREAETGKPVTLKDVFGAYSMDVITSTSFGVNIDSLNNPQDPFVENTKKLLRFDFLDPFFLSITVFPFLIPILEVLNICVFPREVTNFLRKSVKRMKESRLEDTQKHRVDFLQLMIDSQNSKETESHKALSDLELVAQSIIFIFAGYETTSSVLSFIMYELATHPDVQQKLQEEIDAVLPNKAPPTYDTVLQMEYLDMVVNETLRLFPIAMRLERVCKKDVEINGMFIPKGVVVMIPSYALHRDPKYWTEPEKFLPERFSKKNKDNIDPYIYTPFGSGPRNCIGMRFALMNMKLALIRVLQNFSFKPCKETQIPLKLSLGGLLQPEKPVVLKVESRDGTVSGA

With `CO[C@H]1/C=C/O[C@@]2(C)Oc3c(C)c(O)c4c(O)c(c5c(nc6cc(C)ccn65)c4c3C2=O)NC(=O)/C(C)=C\C=C\[C@H](C)[C@H](O)[C@@H](C)[C@@H](O)[C@@H](C)[C@H](OC(C)=O)[C@@H]1C` [Rifaximin, (2S,16Z,18E,20S,21S,22R,23R,24R,25S,26S,27S,28E)-5,6,21,23,25 Pentahydroxy-27-methoxy-2,4,11,16,20,22,24,26-octamethyl-2,7-(epoxypentadeca-(1,11,13)trienimino) benzofuro (4,5-e) pyrido(1,2-a) benzimidazole-1,15(2H)-dione,25-acetate] the CYP3A4 induction (CYP3A4 [1]) was “induces CYP3A4”, the Fetal malformations (rat fetuses; pregnant rats, dose levels that caused reduced body weight gain) was “eye malformations” and the “Post-natal developmental effects in rat pups” value (rat fetuses; pregnant/lactating rats dosed from gestation to Day 20 post-partum, highest dose) was “not observed”. For the same compound, the “Inhibition of CYP3A4” value (CYP3A4 [2]) was “does not inhibit”, the Any infection ([3]; All RFX patients (n = 392), PEY = 510) was 214 (0.072) N (rate*) and the Any infection ([3]; RCT RFX 550 mg BID (n = 140), PEY = 50) was 46 (0.112) N (rate*). The C. difficile infection [3] was 6 (0.012) N (rate*), the Cellulitis [3] was 34 (0.071) N (rate*) and the Peritonitis [3] was 22 (0.044) N (rate*). For the same compound, the Pneumonia [3] was 42 (0.084) N (rate*), the Urinary tract/kidney infection [3] was 83 (0.193) N (rate*) and the C. difficile infection ([3]; 6 months) was 2 (0.040) N (rate*). For the same compound, the Cellulitis ([3]; 6 months) was 3 (0.006) N (rate*), the Peritonitis ([3]; 6 months) was 3 (0.060) N (rate*) and the Pneumonia ([3]; 6 months) was 4 (0.080) N (rate*). The Urinary tract/kidney infection ([3]; 6 months) was 9 (0.187) N (rate*), the “Maximum inhibition of rifaximin efflux permeability due to P-glycoprotein inhibition by verapamil” value (P-glycoprotein; Caco-2 cells) was 12 fold and the P-glycoprotein substrate status (P-glycoprotein; Caco-2 cells and membrane vesicles) was “substrate for P-glycoprotein”. For the same compound, the Papp A→B (P-glycoprotein; human, Caco-2 monolayers, 0.5, 5, and 50 μM, read-out: Net permeability in the absorptive direction) was roughly 10 nm/s, the “Decrease of rifaximin ER in presence of GF120918 (0.5 μM) and verapamil (60 μM)” value (P-glycoprotein; Round 1) was 8- to 12 fold and the “Decrease of rifaximin ER in presence of GF120918 (0.5 μM) and verapamil (60 μM)” value (P-glycoprotein; Round 2) was 3- to 6 fold. For the same compound, the “Median time to recurrence of IBS-related symptoms after initial 14-day treatment” value (IBS-D; TARGET 3) was 8 weeks, the “Patients who responded to initial open-label treatment (abdominal pain and/or stool consistency)” value (IBS-D; TARGET 3, 550 mg TID 14 d, 1074 of 2579 patients) was 41.6% and the “Monthly responders for abdominal pain and stool consistency after first repeat treatment” value (IBS-D; TARGET 3, 4 weeks following first repeat treatment, 550 mg TID) was 33%. For the same compound, the “Abdominal Pain Responders: %” value (IBS-D; [4]) was “(51) %”, the “Abdominal Pain Responders: n” value (IBS-D; [4]) was 166 and the “Abdominal Pain and Stool Consistency Responders: %” value (IBS-D; [4]) was “(33) %”. For the same compound, the “Abdominal Pain and Stool Consistency Responders: n” value (IBS-D; [4]) was 107, the “Stool Consistency Responders: %” value (IBS-D; [4]) was “(42) %” and the “Stool Consistency Responders: n” value (IBS-D; [4]) was 138. For the same compound, the “Sustained response for abdominal pain and stool consistency” value (IBS-D; TARGET 3, no recurrence 10 weeks after repeat treatment) was 17%, the “Prevention of recurrence of abdominal pain and stool consistency responders” value (IBS-D; TARGET 3, no recurrence through second repeat treatment phase (20 weeks)) was 13% and the “Responders without recurrence of abdominal pain or stool consistency symptoms for 22 weeks following initial treatment” value (IBS-D; TARGET 3, number of patients) was 382. For the same compound, the “IBS-Related Abdominal Pain Responders” value (IBS-D; Weeks 3 through 6, Second Repeat Treatment Phase, LOCF Analysis) was “(52.5%)”, the “IBS-Related Abdominal Pain and Stool Consistency Responders” value (IBS-D; Weeks 3 to 6, Double Blind First Repeat Treatment Phase, LOCF Analysis, ITT) was 116/328 and the “Adverse reaction: ALT increased” value (IBS-D; during repeat treatment) was 2%. The “Adverse reaction: nausea” value (IBS-D; during repeat treatment) was 2%, the “Adverse event rate of repeat treatments” value (IBS-D; repeat treatments 550 mg TID) was “generally below that of placebo” and the “Effects on pathogen emergence, pathogen susceptibility, microbial population in stool or skin swab samples” value (IBS-D; up to 3 treatment cycles) was “no evidence of significant effects”. For the same compound, the Additional fetal malformations (rabbit fetuses; fetal rabbits) was “cleft palate, lumbar scoliosis, brachygnathia, interventricular septal defect, and large atrium” and the Fetal malformations (rabbit fetuses; pregnant rabbits, dose levels that caused reduced body weight gain) was “eye malformations”.

— patent US10610522B2, “Methods for retreating irritable bowel syndrome (IBS)” (Salix Pharmaceuticals, Inc., priority 2014, dated 2020)
